Laboratory results: PubChem BioAssay (NCI)
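Briefly, cells in 96-well plates were exposed to five compound concentrations for 48 h, and endpoints were estimated by linear interpolation. GI50 is the concentration that inhibits growth by half. TGI denotes the concentration required for complete inhibition of growth.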

Columns and labels:
Experiment in all cases: NCI tumour cell line growth inhibition, 48 h
NCI-H522 lung = tested on: NCI-H522 lung
KM12 colon = tested on: KM12 colon
MDA-MB-468 breast = tested on: MDA-MB-468 breast
UACC-257 melanoma = tested on: UACC-257 melanoma
M14 melanoma = tested on: M14 melanoma
SR leukemia = tested on: SR leukemia
IGROV1 ovarian = tested on: IGROV1 ovarian
SF-295 CNS = tested on: SF-295 CNS
NCI-H23 lung = tested on: NCI-H23 lung
SW-620 colon = tested on: SW-620 colon
HCT-15 colon = tested on: HCT-15 colon
MCF7 breast = tested on: MCF7 breast
A498 renal = tested on: A498 renal
SK-OV-3 ovarian = tested on: SK-OV-3 ovarian
SNB-19 CNS = tested on: SNB-19 CNS
SK-MEL-2 melanoma = tested on: SK-MEL-2 melanoma
A549 NSCLC = tested on: A549 NSCLC
HT29 colon = tested on: HT29 colon
COLO 205 colon = tested on: COLO 205 colon
PC-3 prostate = tested on: PC-3 prostate
HOP-62 NSCLC = tested on: HOP-62 NSCLC
OVCAR-4 ovarian = tested on: OVCAR-4 ovarian
NCI-H226 lung = tested on: NCI-H226 lung
SNB-75 CNS = tested on: SNB-75 CNS
HS 578T breast = tested on: HS 578T breast
TK-10 renal = tested on: TK-10 renal
U251 CNS = tested on: U251 CNS
T-47D breast = tested on: T-47D breast
MOLT-4 leukemia = tested on: MOLT-4 leukemia

SMILES: Cc1cc(C2(c3cc(C)c(OCC(O)CNc4c(C)n(C)n(-c5ccccc5)c4=O)cc3C(C)C)OC(=O)c3ccccc32)c(C(C)C)cc1OCC(O)CNc1c(C)n(C)n(-c2ccccc2)c1=O (stereo not drawn)
- GI50 (NCI-H522 lung): 26.9 µM
- TGI (NCI-H522 lung): 94.1 µM
- GI50 (KM12 colon): 25.8 µM
- TGI (KM12 colon): > 100 µM
- GI50 (MDA-MB-468 breast): 12.1 µM
- TGI (MDA-MB-468 breast): 44.5 µM
- GI50 (UACC-257 melanoma): 24.1 µM
- TGI (UACC-257 melanoma): > 100 µM
- GI50 (M14 melanoma): 17.8 µM
- TGI (M14 melanoma): 44.7 µM
- GI50 (SR leukemia): 20.9 µM
- TGI (SR leukemia): > 100 µM
- GI50 (IGROV1 ovarian): 29 µM
- TGI (IGROV1 ovarian): > 100 µM
- GI50 (SF-295 CNS): 11.1 µM
- TGI (SF-295 CNS): 32 µM
- GI50 (NCI-H23 lung): 23.5 µM
- TGI (NCI-H23 lung): > 100 µM
- GI50 (SW-620 colon): 28.2 µM
- TGI (SW-620 colon): > 100 µM
- GI50 (HCT-15 colon): 17.1 µM
- TGI (HCT-15 colon): 67.9 µM
- GI50 (MCF7 breast): 14 µM
- TGI (MCF7 breast): 39.6 µM
- GI50 (A498 renal): 29.1 µM
- TGI (A498 renal): > 100 µM
- GI50 (SK-OV-3 ovarian): 49.2 µM
- TGI (SK-OV-3 ovarian): > 100 µM
- GI50 (SNB-19 CNS): 23.5 µM
- TGI (SNB-19 CNS): > 100 µM
- GI50 (SK-MEL-2 melanoma): 17.5 µM
- TGI (SK-MEL-2 melanoma): 40.8 µM
- GI50 (A549 NSCLC): 23.1 µM
- TGI (A549 NSCLC): > 100 µM
- GI50 (HT29 colon): 26.7 µM
- TGI (HT29 colon): > 100 µM
- GI50 (COLO 205 colon): 17.9 µM
- TGI (COLO 205 colon): 41.8 µM
- GI50 (PC-3 prostate): 5.72 µM
- TGI (PC-3 prostate): > 100 µM
- GI50 (HOP-62 NSCLC): 36.5 µM
- TGI (HOP-62 NSCLC): > 100 µM
- GI50 (OVCAR-4 ovarian): 27.2 µM
- TGI (OVCAR-4 ovarian): > 100 µM
- GI50 (NCI-H226 lung): 15.7 µM
- TGI (NCI-H226 lung): > 100 µM
- GI50 (SNB-75 CNS): 20.3 µM
- TGI (SNB-75 CNS): > 100 µM
- GI50 (HS 578T breast): 14.2 µM
- TGI (HS 578T breast): > 100 µM
- GI50 (TK-10 renal): 49.3 µM
- TGI (TK-10 renal): > 100 µM
- GI50 (U251 CNS): 25.9 µM
- TGI (U251 CNS): 99.6 µM
- GI50 (T-47D breast): 18.5 µM
- TGI (T-47D breast): > 100 µM
- GI50 (MOLT-4 leukemia): 6.78 µM
- TGI (MOLT-4 leukemia): > 100 µM
